Assay results taken from PMC4482062 (Nucleic Acids Research, 2015).
Several values for one entry are separate records, joined by “and”; a condition that tells them apart may be missing. Identical values can stand only once.

Tests used:
[1] = parameters: method as in PMID 10858319; conditions: in water; cited from earlier work
[2] = molecular target: T1, CmoB Y200A mutant (Escherichia coli, UniProt P76291, Y200A); assay: Isothermal titration calorimetry, Y200A mutant CmoB; assay type: binding
T1 construct: vector LIC-pET30a) (cleaved yes); made in house; host or cells: Escherichia coli BL21 (DE3)
T1 sequence (P76291 whole entry Y200A): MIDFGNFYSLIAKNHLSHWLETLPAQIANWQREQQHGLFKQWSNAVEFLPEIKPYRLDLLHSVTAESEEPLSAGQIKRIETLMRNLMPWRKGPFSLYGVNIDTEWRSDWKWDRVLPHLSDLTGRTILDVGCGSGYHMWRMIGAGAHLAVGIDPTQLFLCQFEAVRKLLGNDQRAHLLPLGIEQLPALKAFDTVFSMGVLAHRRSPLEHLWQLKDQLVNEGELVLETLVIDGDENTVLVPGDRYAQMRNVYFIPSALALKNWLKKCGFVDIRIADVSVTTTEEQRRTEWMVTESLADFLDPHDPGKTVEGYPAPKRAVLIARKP
Description: (§1) CmoB was extensively dialyzed for 24 h against binding buffer (20-mM HEPES, pH 7.5) using a dialysis cassette with 10-kDa MWCO (Pierce). Lyophilized Cx-SAM was dissolved in the binding buffer at a final concentration of 1.3 mM. SAM was purchased from Sigma and dissolved in binding buffer at a final concentration of 10 mM. Prior to use, all titration samples were centrifuged for 20 min at 4°C. Isothermal titration calorimetry (ITC) experiments were performed at 15°C using an auto-ITC200 (MicroCal, LLC, Northhampton, MA, USA) in which the reaction cell (202.8 μl) containing CmoB (50 μM and 370 μM for Cx-SAM and SAM, respectively) was titrated with 40 × 1-μl injections of 1.3-mM Cx-SAM or 6.7-mM SAM with an equilibration time of 180 s. Raw injection traces were integrated over time, normalized per mol of ligand injected and corrected for the heat of dilution obtained from the plateau of a titration curve. Titration data were analyzed using a single-site model in Origin (version X) and Igor Pro 5/6. […] Based on the chemical synthesis, the Cx-SAM utilized in the binding assay is a racemic mixture, of which only the S-isomer is capable of acting as a substrate/ligand for CmoB. Therefore, the stoichiometry was fixed at 1:1 and the activity of the ligand was introduced as a fitting parameter for Cx-SAM.

[3] = molecular target: T2, wild-type CmoB (Escherichia coli, UniProt P76291); assay: In vitro LC-MS-based alkyl transfer assay, wild-type CmoB; assay type: biochemical
T2 construct: vector LIC-pET30a) (cleaved yes); made in house; host or cells: Escherichia coli BL21 (DE3)
T2 sequence (P76291 whole entry): as the sequence (P76291 whole entry Y200A) above, with A200Y counted along it
Description: (§2) The assay solution for SAM-dependent mo5U formation contained 10-mM Tris-HCl (pH 8.0), 4-mM MgCl2, 0.2-mM SAM and 20–25 μg (∼20 μM) of total tRNA prepared from cmoB-mutant E. coli cells in 50 μl. Reaction conditions for Cx-SAM-dependent cmo5U formation assay were identical, with the exception that10-μM Cx-SAM was used in place of SAM. Assays were initiated by addition of 0.1–2-μM CmoB to the above mixtures and subsequently incubated at the room temperature. The reaction was terminated by the addition of 0.1-mg/ml P1 nuclease, followed by incubation at 60°C for at least 1 h. […] Hydrolyzed nucleotides were directly applied to HPLC without further processing for LC-MS analysis as described above.

[4] = molecular target: T2, wild-type CmoB; assay: Isothermal titration calorimetry, wild-type CmoB; assay type: binding
Description: as §1

[5] = molecular target: T3, CmoB K91A mutant (Escherichia coli, UniProt P76291, K91A); assay: In vitro LC-MS-based alkyl transfer assay, K91A CmoB; assay type: biochemical; conditions: Cx-SAM as alkyl donor, after 24 h
T3 construct: vector LIC-pET30a) (cleaved yes); made in house; host or cells: Escherichia coli BL21 (DE3)
T3 sequence (P76291 whole entry K91A): as the sequence (P76291 whole entry Y200A) above, with K91A, A200Y counted along it
Description: as §2

[6] = molecular target: T3, CmoB K91A mutant; assay: Isothermal titration calorimetry, K91A mutant CmoB; assay type: binding
Description: as §1
The titration curve was analyzed using macroscopic binding constants and enthalpies describing binding of n-molecules of Cx-SAM to tetrameric mutant CmoB. Initially, the titration curve was analyzed with all possible values of n (=1~4). […] Therefore, the titration curve was analyzed using three sets of binding constants and enthalpies (Supplementary Table 2). The fitted values of the macroscopic binding constants were compared to those expected for a case of non-cooperative binding. For both cooperative and non-cooperative binding, K1 is given by 4Ksite where 4 accounts for the number of ligand binding sites in teterameric CmoB (i.e., statistical factor) and Ksite describes the “intrinsic” affinity of each site. Then, Ksite=3.6x10^4 M^-1. The fitted value of K2 is ~ 8.4-fold higher than that calculated for the case of non-cooperative binding (6Ksite^2=7.7x10^9 M^-2), indicating positive cooperativity involved in binding of the second Cx-SAM. Since the population of K91A with three Cx-SAMs bound is negligible, binding of the third Cx-SAM is deduced to be negatively cooperative.
A possible molecular explanation for such heterogeneous cooperativity involved in the interaction between K91A and Cx-SAM is the presence of (at least) two different types of interface between the subunits in tetrameric K91A which is consistent with the structural model of the CmoB tetramer. In this model (Supplementary Figure 9), the four ligand binding sites are initially equivalent, but binding of the first ligand to any of these four sites differentially affects (increases and decreases) the affinities of the neighboring sites for the second ligand through the different subunit interfaces. This model is a variation of the classical “square” model used in the analysis of the interaction between hemoglobin and oxygen(2) and provides a molecular description of the fitted macroscopic binding constants in terms of the intrinsic affinity (Ksite) and two types of cooperativity (ω+ and ω-): K1=4Ksite; K2=2Ksite^2(1+ω++ω-); K4=Ksite^4(ω+ω-)^2. Then, Ksite=3.6x10^4 M^-1, ω+=23.8, and ω-=0.4. The value of ω is equivalent to a fold-change in the Cx-SAM affinity of a binding site in tetrameric K91A when its neighboring site is already occupied by Cx-SAM.
^aIn this model, the interaction is described by a set of binding events where n-molecules of Cx-SAM bind tetrameric CmoB (K91A) with the corresponding binding constants (Kn) and enthalpies (∆Hn°). Initially, the titration curve was analyzed by this model including all possible values of n (=1~4). […] Therefore, the titration curve was analyzed using three sets of binding constants and enthalpies.

[7] = molecular target: T4, CmoB (Escherichia coli, UniProt P76291); assay: Time course of SAM-dependent mo5U modification ([14CH3]-SAM), competition with Cx-SAM; assay type: biochemical; conditions: 10-μM Cx-SAM, 140 μM [14CH3]-SAM, 90 min
T4 construct: vector LIC-pET30a) (cleaved yes); made in house; host or cells: Escherichia coli BL21 (DE3)
T4 sequence (P76291 whole entry): as the sequence (P76291 whole entry Y200A) above, with A200Y counted along it
Description: The assay was initiated by mixing 10-mM Tris (pH 8.0), 4-mM MgCl2, 140-μM [^14CH3]-SAM (Perkin Elmer), 100 μg of total tRNA prepared from cmoB-deficient cells and 2-μM CmoB in 50 μl. In competition assays to measure the effect of Cx-SAM on methylation, 10-μM Cx-SAM was added to the above mixture. […] RNA was washed with 0.2-M ammonium acetate (pH 6.0) using an MWCO 10-kDa filter by centrifugation. This washing step was repeated two more times to remove unreacted ^14C-SAM. RNA was then spotted on a DE81 filter (GE) and air-dried for 20 min. Images of the radioactive tRNA were recorded on a phosphorimaging plate (Molecular Dynamics) for 2 days and analyzed using a Molecular Dynamics Storm 860 PhosphorImager System with ImageQuant software.

[8] = molecular target: T5, CmoB R315A mutant (Escherichia coli, UniProt P76291, R315A); assay: Isothermal titration calorimetry, R315A mutant CmoB; assay type: binding
T5 construct: vector LIC-pET30a) (cleaved yes); made in house; host or cells: Escherichia coli BL21 (DE3)
T5 sequence (P76291 whole entry R315A): as the sequence (P76291 whole entry Y200A) above, with A200Y, R315A counted along it
Description: as §1

O=c1[nH]c(=O)n([C@H]2C[C@H](O)[C@@H](CO)O2)cc1O [5-hydroxy-2′-deoxyuridine]
pKa of the hydroxyl group on the pyrimidine ring [1]: 7.68

Nc1ncnc2c1ncn2[C@@H]1O[C@H](C[S+](CC[C@H](N)C(=O)[O-])CC(=O)O)[C@@H](O)[C@H]1O (stereo partly drawn) [Cx-SAM, carboxy-S-adenosine-L-methionine]
Kd [2]: 1800 ± 300 nM
K (binding constant) ([2]; ITC, 15°C, single-site model, Y200A): 5.5 ± 0.8 × 10^5 M^−1 and 5.5 ± 0.8 x 10^5 M^−1
ΔH° ([2]; ITC, Y200A): -7.3 ± 0.1 kcal/mol
Specificity ratio K(Cx-SAM)/K(SAM) ([2]; Y200A): > 65
Reduction of Cx-SAM binding affinity compared to the wild type ([2]; Y200A vs wild type): 4–5 fold
ΔG° ([2]; ΔG° = −RT lnK, Y200A): -7.6 ± 0.1 kcal/mol
ΔS° ([2]; ΔS° = (ΔH°−ΔG°)/T, Y200A): 0.8 ± 0.5 cal/mol/deg
Time to detectable cmo5U formation ([3]; 0.1-μM wild-type CmoB, 10-μM Cx-SAM, tRNA from cmoB-defective cells): 9 min
Time to detected cmo5U with both donors present ([3]; 10-μM Cx-SAM and 2-mM SAM): 20 min
ΔH° ([4]; ITC): -7.9 ± 0.1 kcal/mol
Kd ([4]; ITC, 15°C, read-out: Kd): 400 ± 30 nM
K (binding constant) ([4]; ITC, 15°C, single-site model): 2.5 ± 0.2 × 10^6 M^−1 and 2.5 ± 0.2 x 10^6 M^−1
TΔS° ([4]; ITC, text): 0.55 ± 0.06 kcal/mol
ΔG° ([4]; ITC, text): -8.44 ± 0.03 kcal/mol
ΔH° ([4]; ITC, text): -7.88 ± 0.05 kcal/mol
ΔS° ([4]; ITC, text): 1.92 ± 0.21 cal·mol^−1·deg^−1
ΔG° ([4]; ΔG° = −RT lnK): -8.4 ± 0.1 kcal/mol
ΔS° ([4]; ΔS° = (ΔH°−ΔG°)/T): 1.9 ± 0.2 cal/mol/deg
cmo5U formation [5]: No significant cmo5U signal was detected
K (binding constant) ([6]; ITC, 15°C, single-site model, K91A): 9.0 ± 1.8 × 10^3 M^−1 and 9.0 ± 1.8 x 10^3 M^−1
ΔH° ([6]; ITC, K91A): -16.5 ± 1.6 kcal/mol
Kd ([6]; K1 (macroscopic binding constant), tetrameric K91A, 1 ligand bound): 7.14 µM
Ksite (intrinsic affinity of each site) ([6]; K1=4Ksite, tetrameric K91A): 36000 M⁻¹
Kd ([6]; Kd, ITC, 15°C, K91A): 111 µM and 110 µM
ω+ (positive cooperativity factor) ([6]; square model, tetrameric K91A): 23.8
ω- (negative cooperativity factor) ([6]; square model, tetrameric K91A): 0.4
K2 (macroscopic binding constant) ([6]; tetrameric K91A, 2 ligands bound): 6.5 (± 1.4) x 10^10 M^-2
K4 (macroscopic binding constant) ([6]; tetrameric K91A, 4 ligands bound): 1.6 (± 0.5) x 10^20 M^-4
Fitted K2 relative to non-cooperative binding ([6]; vs 6Ksite^2): ~ 8.4 fold
Fitted K4 relative to non-cooperative binding ([6]; vs Ksite^4): ~ 98.5 fold
ΔG° ([6]; ΔG° = −RT lnK, K91A): -5.2 ± 0.1 kcal/mol
ΔS° ([6]; ΔS° = (ΔH°−ΔG°)/T, K91A): −39.3 ± 5.4 cal/mol/deg
Effect on [14CH3]-SAM methylation of tRNA (radioactive signal) [7]: no detectable radioactive signal
Kd [8]: 2100 ± 200 nM
K (binding constant) ([8]; ITC, 15°C, single-site model, R315A): 4.7 ± 0.3 × 10^5 M^−1 and 4.7 ± 0.3 x 10^5 M^−1
ΔH° ([8]; ITC, R315A): -8.5 ± 0.1 kcal/mol
Reduction of Cx-SAM binding affinity compared to the wild type ([8]; R315A vs wild type): 4–5 fold
ΔG° ([8]; ΔG° = −RT lnK, R315A): -7.5 ± 0.1 kcal/mol
ΔS° ([8]; ΔS° = (ΔH°−ΔG°)/T, R315A): −3.5 ± 0.3 cal/mol/deg
